Reference: patent publication US8609413B2, “Neurons, astrocytes and oligodendrocytes differentiated from a mammalian pluripotent or neural stem cells exposed to a pyridine deriviative” (Research Development Foundation, priority 2007, dated 2013)

How the values were obtained:
mouse ES cells = conditions: literature reports; cited from earlier work
human ES cells = test: TWS119 tested by the inventors on human ES cells; format: cell-based
[1] = tested on: human ESC-derived NPC / ESC aggregates; test: Air/liquid interface three-dimensional culture with added factors; format: cell-based; conditions: exogenously added factor
Description: Air/liquid interface expansion/differentiation of NPC may be performed via the following protocol. One or more rosettes-enriched clusters may be manually removed and multiple clusters (e.g., about 5-10 clusters) may be plated on a hydrophilic polytetrafluoroethylene (PTFE) membrane (e.g., 6 mm diameter, 0.4 μm, BioCell-Interface, La Chaux-de-Fonds, Switzerland). This membrane may be deposited on a Millicell®-CM (0.4 μm) Culture Plate Insert (Millipore) (FIG. 5A). N2 medium may preferably be added (e.g., about 1 ml) underneath the membrane insert.
Air/liquid interface expansion/differentiation of NPC. Rosettes-enriched cluster were manually removed and 5-10 clusters were plated on a hydrophilic polytetrafluoroethylene (PTFE) membrane (6 mm diameter, 0.4 μm, BioCell-Interface, La Chaux-de-Fonds, Switzerland). This membrane was deposited on a Millicell®-CM (0.4 μm) Culture Plate Insert (Millipore) (FIG. 1). One ml of N2 medium was added underneath the membrane insert.

## Cc1cccc(C#Cc2ccccc2)n1 [MPEP, 2-methyl-6-(phenylethynyl)-pyridine]
Mouse ES cells
  neuronal differentiation of mouse ES cells: enhances their differentiation towards neurons

## Nc1cccc(-c2cc3c(Oc4cccc(O)c4)ncnc3[nH]2)c1 [TWS119]
Human ES cells
  cell growth: decreased cell growth
  neuronal differentiation: only small effect on neuronal differentiation
Mouse ES cells
  neuronal differentiation of mouse ES cells: enhanced neuronal differentiation of mouse ES cells

## FGF-2: basic fibroblast growth factor, exogenously added growth factor
[1]
  phenotype of engineered tissue: did not induce phenotypic changes
  size of engineered tissue: moderate increase

## EGF: epidermal growth factor
[1]
  phenotype of engineered tissue: did not induce phenotypic changes
  size of engineered tissue: moderate increase
